Reference: patent US11679107B2 (Eisai R&D Management Co., Ltd., priority 2018, dated 2023)
Where two headings read alike, the source gives them in different places.

Tests used:
[1] = tested on: NCI-H1568 cells (high MCL1); test: Cell proliferation and viability, CellTiter-Glo, 72 hours; assay type: cell-based; conditions: for GI50: geometric mean
Experimental: (§1) Cell lines were maintained in RPMI-1640 (ATCC 30-2001) supplemented with 10% fetal bovine serum (FBS). The Panc lines were supplemented in addition with insulin and FBS up to 15% total.
(§2) Compounds for assay were prepared as stocks in 90% dimethyl sulfoxide (DMSO), assessed for purity by LC/MS, and serially diluted in DMSO using a low-volume liquid handler (VIAFLO ASSIST and VIAFLO II electronic 16-channel pipette, 0.5-12.5 μL) in an 11-point half-log serial dilution to create a master dose response (MDR) source used for all tests.
(§3) Transfer of compounds from the MDR source plate to cell assay-ready plates were accomplished directly by low-energy acoustic transfer (ATS100, EDC Biosystems). After transfer of compounds to the assay plate, the dose-response range experienced by cells was typically 10 μM-100 pM (5 logs), and final DMSO concentration in the assay was 0.1%, uniformly. Each assay plate was self-anchored containing vehicle/DMSO negative controls, medium-only/positive controls, and cidal control dose-responses of bortezomib and staurosporine. Assay-ready plates were heat-sealed and stored at −20° C. until used, no longer than one month.
(§4) A DMSO-matched time zero (T0) plate was read and then all other plates were incubated at 37° C. with 5% CO2 and 95% relative humidity until the end of assay. Cell proliferation and viability assays were performed 72 hours post-treatment depending on cell growth where at least one doubling would have occurred.
(§5) Assessment of viability and proliferation was by measurement of cell ATP content using CellTiter-Glo® Luminescent Cell Viability Assay reagent (Promega) according to the manufacturer's instructions (CellTiter-Glo® Luminescent Cell Viability Assay Technical Bulletin Instructions for Use of Product(s) G7570, G7571, G7572, G7573 Literature #TB288, Revised March 2015), using a microtiter plate reader (Envision, PE).
(§6) Cell proliferation was evaluated using the time zero (T0) signal as the positive control and the within-plate vehicle wells (DMSO) as the negative control. Data was converted to percent inhibition and falls into the range from −100% to 100% of growth where −100% equals a cidal response and 100% equals uninhibited or maximal growth. Cell growth at or near 0% is considered a static response.

[2] = tested on: Panc 05.04 cells (SF3b K700E mutant); test: as above; assay type: cell-based; conditions: for GI50: geometric mean
Experimental: as §1, §2, §3, §4, §5, §6

[3] = tested on: Ad2 variant pre-mRNAs spliced in HeLa S3 nuclear extracts; test: In vitro splicing assay (IVS), RT-qPCR of spliced product; assay type: biochemical; conditions: for IC50: geometric mean; for Ratio Ad2.1/2.2: ratio of IVS IC50 Ad2.1 to Ad2.2
Experimental: (§7) Batch immobilization of anti-SF3B1 antibody (MBL) to anti-mouse PVT SPA scintillation beads (PerkinElmer) was prepared as follows: for every 2.5 mg of nuclear extracts, 5 μg anti-SF3B1 antibody and 1.5 mg of beads were mixed in 150 μl PBS. The antibody-bead mixture was incubated for 30 min at RT and centrifuged at 18,000 g for 5 min. 150 μl PBS was used to resuspend every 1.5 mg antibody-bead mixture. The beads were suspended and added to the prepared nuclear extracts. The slurry was incubated for 2 h at 4° C. with gentle mixing. The beads were then collected by centrifuging at 18,000 g for 5 min, and washed twice with PBS+0.1% Triton X-100. After a final centrifugation step, every 1.5 mg of beads was suspended with 150 μl of PBS. The SF3b complexes were tested for [^3H]-labelled pladienolide probe binding ([^3H]—PB), synthesized as previously described (Kotake et al., 2007). 100 μl binding reactions were prepared with 50 μl bead slurry and by adding varying concentrations of PB or PB—OH, and after 30 min pre-incubation, 2.5 nM [^3H]—PB was added. The mixture was incubated for 30 min, and luminescence signals were read using a MicroBeta2 Plate Counter (PerkinElmer). Prism 6 (Graphpad) was used for non-linear regression curve fitting of the data. • a. • b. HeLa nuclear extract preparation (for in vitro splicing modulation assay below) • c. HeLa S3 cell pellets were resuspended in hypotonic buffer (10 mM HEPES pH 7.9, 1.5 mM MgCl2, 10 mM KCl, 0.2 mM PMSF, and 0.5 mM DTT) and the suspension was brought up to a total of 5 packed cell volume (PCV). After centrifugation, the supernatant was discarded, and the cells were brought up to 3 PCV with hypotonic buffer and incubated on ice for 10 minutes. Cells were lysed using a dounce homogenizer and then centrifuged. The supernatant was discarded, and the pellet was resuspended with ½ packed nuclear volume (PNV) of low salt buffer (20 mM HEPES pH 7.9, 1.5 mM MgCl2, 20 mM KCl, 0.2 mM EDTA, 25% glycerol, 0.2 mM PMSF, 0.5 mM DTT), followed by ½ PNV of high salt buffer (same as low salt buffer except 1.4 M KCl was used). The nuclei were gently mixed for 30 minutes before centrifuging. The supernatant (nuclear extract) was then dialyzed into storage buffer (20 mM HEPES pH 7.9, 100 mM KCl, 0.2 mM EDTA, 20% glycerol, 0.2 mM PMSF, 0.5 mM DTT). Protein concentration was determined using NanoDrop 8000 UV-Vis spectrophotometer (ThermoFisher Scientific). • d. In vitro splicing assay (IVS)
All Ad2-derived (Pellizzoni et al., 1998) sequences were cloned into pcDNA3.1(+) vector (Promega) using 5′ EcoRI and 3′ XbaI restriction sites. The plasmids were linearized using XbaI and used as DNA templates in the in vitro transcription reactions. The FtzΔi intron-less plasmid (Luo and Reed, 1999) was linearized using EcoRI. All RNAs were in vitro transcribed and then purified using MEGAScript T7 (Invitrogen) and MegaClear (Invitrogen) kits, respectively. For splicing reactions using Ad2 variant pre-mRNAs, […] reactions were prepared using 8 μg nuclear extracts prepared from HeLa S3, 2 ng pre-mRNA, 0.2 ng FTZΔi, and varying concentrations of exemplary payloads or DMSO. After a 15 minute pre-incubation at 30° C., 1 μL splicing activation buffer (0.5 mM ATP, 20 mM creatine phosphate, 1.6 mM MgCl2) was added, and the reactions were incubated for 90 minutes at 30° C. The reactions were then quenched with 13 μL it DMSO, and 25 nL was used for RT-qPCR. RT-qPCR reactions were prepared using TaqMan RNA-to-CT 1-step kit (Life Technologies), RNA from splicing reactions, Ad2 (forward: […]; reverse: […]; probe: […]) and Ftz (forward: […]; reverse: […]; probe: […]) mRNA primer-probe sets. Prism 6 (Graphpad) was used for non-linear regression curve fitting of the formed spliced product and normalized to the control (DMSO) sample.

SF3b complexes = target: T1, SF3b complexes (Homo sapiens, UniProt O75533+Q7RTV0); test: Scintillation proximity assay (SPA) with [3H]-labelled pladienolide probe; assay type: binding; conditions: SF3B1 (WT); geometric mean; read-out: SPA-ATS GMean IC50 (nM) SF3B1 (WT)
T1 construct: endogenous in cells; host or cells: Nuclear extracts; A HeLa S3 extract preparation is described for the in vitro splicing assay
Experimental: Scintillation Proximity Assay (SPA) with [^3-H]-Labelled Pladienolide Probe
as §7

[4] = 72 h, NCIH1568.1, -100% = cidal, 0% = static, 100% = uninhibited growth
[5] = NCI-H1568, 72 h, read-out: CTGlo-ATS GMean GI50 (nM) 72 h NCIH1568.1, 72 h, NCIH1568.1
[6] = 72 h, PANC0504.1, -100% = cidal, 0% = static, 100% = uninhibited growth
[7] = Panc 05.04, 72 h, read-out: CTGlo-ATS GMean GI50 (nM) 72 h PANC0504.1, 72 h, PANC0504.1
[8] = Ad2.1 pre-mRNA substrate, read-out: qPCR-IVS-ATS GMean IC50 (nM) Ad2.1
[9] = Ad2.2 pre-mRNA substrate, read-out: qPCR-IVS-ATS GMean IC50 (nM) Ad2.2
[10] = NCI-H1568, read-out: CTGlo-ATS GMean GI50 (nM) 72 h NCIH1568.1, NCIH1568.1 cells, 72 h
[11] = NCIH1568.1 cells, 72 h, −100% cidal, 0% static, 100% maximal growth
[12] = PANC0504.1 cells, 72 h, −100% cidal, 0% static, 100% maximal growth
[13] = Panc 05.04, read-out: CTGlo-ATS GMean GI50 (nM) 72 h PANC0504.1, PANC0504.1 cells, 72 h
[14] = Panc 05.04, 72 h, read-out: CTGlo-ATS GMean GI50 (nM) 72 h PANC0504.1, PANC0504.1 cells, 72 h

Row | SMILES | CTGlo-ATS Mean MinResponse % 72 h NCIH1568.1 [1, 4] [%] | GI50 [1, 5] [nM] | CTGlo-ATS Mean MinResponse % 72 h PANC0504.1 [2, 6] [%] | GI50 [2, 7] [nM] | IC50 [3, 8] [nM] | IC50 [3, 9] [nM] | Ratio Ad2.1/2.2 [3] | GI50 [1, 10] [nM] | CTGlo-ATS Mean MinResponse % 72 h NCIH1568.1 [1, 11] [%] | CTGlo-ATS Mean MinResponse % 72 h PANC0504.1 [2, 12] [%] | GI50 [2, 13] [nM] | IC50 (SF3b complexes) [nM] | GI50 [2, 14] [nM] | GI50 ([1]; NCI-H1568, 72 h, read-out: CTGlo-ATS GMean GI50 (nM) 72 h NCIH1568.1, NCIH1568.1 cells, 72 h) [nM]
1 | C/C(=C\c1cccc(COC(=O)N2CCC(O)CC2)c1)[C@H]1OC(=O)C[C@H](O)CC[C@H](C)[C@@H](OC(=O)N2CCN(C)CC2)/C=C/[C@@H]1C [Compound 261, [(2S,3S,4E,6R,7S,10R)-10-hydroxy-2-[(E)-1-[3-[(4-hydroxypiperidine-1-carbonyl)oxymethyl]phenyl]prop-1-en-2-yl]-3,7-dimethyl-12-oxo-1-oxacyclododec-4-en-6-yl] 4-methylpiperazine-1-carboxylate] | −36.811 | 57.6 | −89.906 | 32.3 | 23300 | 76.6 | 304.222 |  |  |  |  |  |  | 
2 | C/C(=C\c1cc(F)cc(N2CCOCC2)c1)[C@H]1OC(=O)C[C@H](O)CC[C@H](C)[C@@H](OC(=O)N(C)Cc2ccncc2)/C=C/[C@@H]1C [Compound 47] |  |  |  |  | 16900 | 79.6 |  | 66.5 | −44.494 | −87.783 | 78.2 |  |  | 
3 | C/C(=C\c1cc(F)cc(N2CCN(C(=O)Cn3cccn3)CC2)c1)[C@H]1OC(=O)C[C@H](O)CC[C@H](C)[C@@H](OC(=O)N2CC[C@H](N(C)C)C2)/C=C/[C@@H]1C [Compound 228, [(2S,3S,4E,6R,7S,10R)-2-[(E)-1-[3-fluoro-5-[4-(2-pyrazol-1-ylacetyl)piperazin-1-yl]phenyl]prop-1-en-2-yl]-10-hydroxy-3,7-dimethyl-12-oxo-1-oxacyclododec-4-en-6-yl] (3S)-3-(dimethylamino)pyrrolidine-1-carboxylate] | −77.633 | 3.29 |  |  |  |  |  |  |  |  |  | 3.96 |  | 
4 | C/C(=C\c1cc(F)c2nnn(CC3CCOCC3)c2c1)[C@H]1OC(=O)C[C@H](O)CC[C@H](C)[C@@H](OC(=O)N2CCN(C)CC2)/C=C/[C@@H]1C [Compound 148] |  |  |  |  |  |  |  | 1.42 | −85.010 |  |  | 2.24 |  | 
5 | C/C(=C\c1ccc(S(=O)(=O)NC2CC2)c(F)c1)[C@H]1OC(=O)C[C@H](O)CC[C@H](C)[C@@H](OC(=O)N2CCN(C)CC2)/C=C/[C@@H]1C [Compound 90, [(2S,3S,4E,6R,7S,10R)-2-[(E)-1-[4-(cyclopropylsulfamoyl)-3-fluorophenyl]prop-1-en-2-yl]-10-hydroxy-3,7-dimethyl-12-oxo-1-oxacyclododec-4-en-6-yl] 4-methylpiperazine-1-carboxylate] |  |  |  |  | > 25000 | 168 |  | 107 | −8.495 | −12.315 | 141 |  |  | 
6 | C/C(=C\c1cccc(COC(=O)N2CCCC2CO)c1)[C@H]1OC(=O)C[C@H](O)CC[C@H](C)[C@@H](OC(=O)N2CCN(C)CC2)/C=C/[C@@H]1C (stereo in doubt) [Compound 259, [(2S,3S,4E,6R,7S,10R)-10-hydroxy-2-[(E)-1-[3-[[(2R)-2-(hydroxymethyl)pyrrolidine-1-carbonyl]oxymethyl]phenyl]prop-1-en-2-yl]-3,7-dimethyl-12-oxo-1-oxacyclododec-4-en-6-yl] 4-methylpiperazine-1-carboxylate] | −43.329 | 133 | −86.489 | 31.5 | > 25000 | 83.1 | 300.977 |  |  |  |  |  |  | 
7 | C/C(=C\c1ccc(F)c(N2CCOCC2)c1)[C@H]1OC(=O)C[C@H](O)CC[C@H](C)[C@@H](OC(=O)N2CCN(C)CC2)/C=C/[C@@H]1C [Compound 8] |  |  |  |  | 14200 | 42.2 |  |  |  | −94.207 |  |  | 19.3 | 
8 | C/C(=C\c1cc(F)cc(N2CCC(O)CC2)c1)[C@H]1OC(=O)C[C@H](O)CC[C@H](C)[C@@H](OC(=O)N2CCN(C)CC2)/C=C/[C@@H]1C [Compound 30] |  |  |  |  | 19.1 | 11 |  |  | −78.664 | −75.997 |  |  | 7.02 | 5.89
